From publication PMC12655819 (Pharmaceuticals, 2025)
Marks after values point to notes of the source that are not given here.

How the values were obtained:
[1] = Pharmacokinetics from plasma unbound levels in plasma ultrafiltrate (fMPA, fMPAG); assay type: in vivo, human; settings: free level in plasma ultrafiltrate
Description: (§1) The AUC0–4, Tmax, and Cmax parameters were calculated using the R (version 4.5.1) package software (R Core Team, 2025), supported by RStudio (version 2025.05.1+513) from Posit PBC software (Boston, MA, USA). […] The vMPA and vMPAG capillary blood levels were corrected using formulas validated in our department (partially published by Kocur et al.) and expressed as estimated capillary plasma concentrations. […] Individual PK profiles for each patient included in the study are provided in the Supplementary File (Figures S4 and S5).
Next, the sample was centrifuged at 3000× g for 5 min at ambient conditions, and the supernatant was transferred into a chromatographic vial. Sample processing was performed at the Department of Drug Chemistry, Pharmaceutical and Biomedical Analysis, Medical University of Warsaw, Poland.
(§2) From each patient (if they consented to all sampling types), four samples were collected simultaneously at all defined time points of the dynamic PK profile (0, 0.5, 1, 2, and 4 h after drug administration). Whole blood was collected using standard venipuncture by a phlebotomist into a K3-EDTA test tube (Sarstedt, Nümbrecht, Germany). Plasma for analytical determination was obtained by centrifuging a portion of the whole blood and stored at −40 °C until assay. At the same time, 10 µL capillary blood samples were collected from a finger prick using the Mitra™ device (VAMS samples were stored in light-protected aluminum zip bags with desiccant at room temperature).

[2] = Pharmacokinetics from liquid (wet) saliva collected with Salivette (sMPA, sMPAG); assay type: in vivo, human
Description: as §1
The concentrations of sMPA and sMPAG in saliva were determined using a previously described LC-MS/MS method. Briefly, 100 µL of saliva was used for analysis. […] Samples were vortexed and evaporated to dryness. The dry residues were reconstituted in 100 μL of a mobile phase consisting of a 1:4 (v/v) mixture of methanol and water, both of which contained 0.1% formic acid. After double centrifugation, the samples were analyzed using a Shimadzu Ultra-Performance Liquid Chromatography (UPLC) system (Shimadzu Co., Kyoto, Japan) coupled with a triple quadrupole mass spectrometer (LCMS-8030; Simadzu Co., Kyoto, Japan). The method was linear over the concentration range of 2–500 μg/L for both sMPA and sMPAG. This part of the work was carried out with the support of the Centre of Innovative Pharmaceutical Technology, Poznan University of Medical Sciences (Poznan, Poland).
(§3) Additionally, the unstimulated saliva samples were simultaneously collected using the Salivette® device (Sarstedt, Nümbrecht, Germany) and Mitra™ 20 µL microsampling tips (Neoteryx/Trajan, Torrance, CA, USA (all saliva samples simultaneously to plasma and capillary blood sampling: 0, 0.5, 1, 2, and 4 h after drug administration). Patients had not eaten for at least 30 min before saliva collection, and their mouths were rinsed with water. The study was conducted in accordance with the Declaration of Helsinki and the International Council for Harmonization Guideline for Good Clinical Practice. The protocol was approved by the Bioethics Committee of the Children’s Memorial Health Institute, Warsaw, Poland (approval No. 15/KBE/2023, with subsequent amendments). Written informed consent was obtained from all participants and their legal guardians.

[3] = Pharmacokinetics from dried saliva collected with Mitra VAMS (vsMPA, vsMPAG); assay type: in vivo, human
Description: as §1
Samples were sonicated (36 °C, 30 min), vortexed (15 min), and frozen (−20 °C, 15 min). After centrifugation (10 min, 25,155× g), 350 µL of supernatant was transferred to a total recovery borosilicate vial (Finneran, Vineland, NJ, USA) and evaporated to dryness under a stream of nitrogen (40 °C) using Ultravap® Levante (Porvair, Hampshire, Great Britain). The residue was reconstituted in 150 µL of mobile phase A, filtered in a Verex™ vial, and 5 µL was injected into the LC–MS/MS system. Analyses were performed at the Department of Drug Chemistry, Pharmaceutical and Biomedical Analysis, Medical University of Warsaw, Poland.
as §3

[4] = Pharmacokinetics from capillary blood collected with Mitra VAMS (vMPA, vMPAG); assay type: in vivo, human
Description: as §1
Subsequently, the tip (after at least 1 h of drying) was placed in an 1.5 mL Eppendorf-type test tube (Eppendorf AG, Hamburg, Germany) containing 150 μL of pure deionized water. Next, the test tube was shaken at room temperature for 1 h using the automatic rotary vortex. Subsequently, 10 μL of IS solution and 150 μL of the precipitation mixture were added. The sample was then processed as described in Section 4.3.4. Sample processing was carried out at the Department of Drug Chemistry, Pharmaceutical and Biomedical Analysis, Medical University of Warsaw, Poland [21].
as §2

[5] = Stability of analytes in dried saliva Mitra VAMS tips; assay type: physicochemical; settings: room temperature (with daily light exposure), n=6
Description: Stability testing, a crucial component of method development and validation, was conducted through various experiments, including storage stability in the autosampler and stability of analytes in VAMS tips under different stress conditions. Analyte stability is deemed acceptable if the differences stay within the nominal range of ±15%. Additionally, the reproducibility of the injection was assessed during autosampler stability testing.

[6] = cited from earlier work
[7] = 0 h (pre-dose), n = 20, mean ± SD
[8] = 0.5 h post-dose, n = 20, mean ± SD
[9] = 1 h post-dose, n = 20, mean ± SD
[10] = 2 h post-dose, n = 20, mean ± SD
[11] = 4 h post-dose, n = 20, mean ± SD
[12] = normalized to MMF dose, n = 20, mean (range)
[13] = pediatric renal transplant recipients (n = 20) on MMF, mean (range)
[14] = wet saliva, pediatric renal transplant recipients (n = 20) on MMF, mean (range)
[15] = dried saliva (Mitra VAMS), pediatric renal transplant recipients (n = 20) on MMF, mean (range)

SMILES: COc1c(C)c2c(c(O[C@@H]3O[C@H](C(=O)O)[C@@H](O)[C@H](O)[C@H]3O)c1C/C=C(\C)CCC(=O)O)C(=O)OC2 [MPAG, mycophenolic acid glucuronide]
- C0 concentration [1, 7]: 3893 ± 2073 ng/mL
- C0.5 concentration [1, 8]: 6264 ± 4238 ng/mL
- C1 concentration [1, 9]: 8.029 ± 4.393 mg/L
- C2 concentration [1, 10]: 6.889 ± 3.791 mg/L
- C4 concentration [1, 11]: 4.701 ± 2.218 mg/L
- AUC(0–4) Normalized to Drug Dose [1, 12]: 66.47 (19.97–195.68) ^d mg × h/mL × g
- Cmax ([1]; pediatric renal transplant recipients (n = 20) on MMF (CellCept), steady state, 0–4 h post-dose, mean (range)): 8.98 (3.85–19.81) mg/L
- AUC(0–4) [1, 13]: 25200 ng·h/mL
- Tmax [1, 13]: 1.55 (0.50–2.00) h
- Cmax ([2]; wet saliva (unstimulated, Salivette), pediatric renal transplant recipients (n = 20) on MMF, 0–4 h post-dose, mean (range)): 73.74 (22.00–146.00) µg/L
- C0 concentration ([2]; wet saliva, 0 h (pre-dose), n = 20, mean ± SD): 19.135 ± 12.712 ng/mL
- C0.5 concentration ([2]; wet saliva, 0.5 h post-dose, n = 20, mean ± SD): 39.659 ± 26.611 ng/mL
- C1 concentration ([2]; wet saliva, 1 h post-dose, n = 20, mean ± SD): 70.173 ± 44.943 µg/L
- C2 concentration ([2]; wet saliva, 2 h post-dose, n = 20, mean ± SD): 39.371 ± 25.210 µg/L
- C4 concentration ([2]; wet saliva, 4 h post-dose, n = 20, mean ± SD): 22.417 ± 15.097 µg/L
- AUC(0–4) Normalized to Drug Dose ([2]; wet saliva, normalized to MMF dose, n = 20, mean (range)): 352.10 (119.88–857.42) ^c µg × h/mL × g
- AUC(0–4) [2, 14]: 158 ng·h/mL
- Tmax [2, 14]: 1.08 (0.50–2.00) h
- Cmax ([3]; dried saliva (Mitra VAMS 20 µL), pediatric renal transplant recipients (n = 20) on MMF, 0–4 h post-dose, mean (range)): 70.30 (19.04–146.54) µg/L
- C0 concentration ([3]; dried saliva (Mitra VAMS), 0 h (pre-dose), n = 20, mean ± SD): 17.834 ± 12.122 ng/mL
- C0.5 concentration ([3]; dried saliva (Mitra VAMS), 0.5 h post-dose, n = 20, mean ± SD): 37.704 ± 24.598 ng/mL
- C1 concentration ([3]; dried saliva (Mitra VAMS), 1 h post-dose, n = 20, mean ± SD): 67.422 ± 44.462 µg/L
- C2 concentration ([3]; dried saliva (Mitra VAMS), 2 h post-dose, n = 20, mean ± SD): 39.258 ± 25.317 µg/L
- C4 concentration ([3]; dried saliva (Mitra VAMS), 4 h post-dose, n = 20, mean ± SD): 19.762 ± 13.638 µg/L
- AUC(0–4) Normalized to Drug Dose ([3]; dried saliva (Mitra VAMS), normalized to MMF dose, n = 20, mean (range)): 335.45 (115.15–902.00) ^c µg × h/mL × g
- AUC(0–4) [3, 15]: 145 ng·h/mL
- Tmax [3, 15]: 1.03 (0.50–2.00) h
- C0 concentration [4, 7]: 22481 ± 10350 ng/mL
- C0.5 concentration [4, 8]: 34340 ± 14354 ng/mL
- C1 concentration [4, 9]: 44.003 ± 20.520 mg/L
- C2 concentration [4, 10]: 34.039 ± 12.356 mg/L
- C4 concentration [4, 11]: 25.381 ± 11.908 mg/L
- AUC(0–4) ([4]; corrected to estimated capillary plasma concentration, n = 20, mean (range)): 133000 ng·h/mL
- Cmax ([4]; corrected to estimated capillary plasma concentration, pediatric renal transplant recipients (n = 20) on MMF, mean (range)): 47.73 (19.80–110.76) mg/L
- AUC(0–4) Normalized to Drug Dose [4, 12]: 361.35 (100.49–1064.33) ^d mg × h/mL × g
- Tmax [4, 13]: 1.38 (0.50–2.00) h
- stability, mean recovery ([5]; HQC, 1 week): 96.66%
- stability, mean recovery ([5]; HQC, 2 weeks): 94.51%
- stability, mean recovery ([5]; HQC, 24 hours): 100.16%
- stability, mean recovery ([5]; HQC, 3 days): 98.94%
- stability, mean recovery ([5]; LQC, 1 week): 99.67%
- stability, mean recovery ([5]; LQC, 2 weeks): 97.25%
- stability, mean recovery ([5]; LQC, 24 hours): 103.15%
- stability, mean recovery ([5]; LQC, 3 days): 100.46%
- increase of concentration in severe renal impairment ([6]; patients with severe renal impairment, up): 3–6 fold
- time of peak plasma concentration after administration ([6]; plasma): 1 to 4 h
- binding to albumin ([6]; stable transplant recipients): approximately 82%
